Where “and” joins values, the source holds several entries; their conditions need not be identical. Equal values may be shown once.
Assays:
[1] = system: eyelashes of subjects with idiopathic hypotrichosis; test: GEA / ESQ Domain 2 responder analysis, 1-year clinical study, idiopathic hypotrichosis; assay type: in vivo, human
Excerpt: A one-year, multicenter, randomized, double-masked, vehicle-controlled study. Adult post-chemotherapy and idiopathic eyelash hypotrichosis subjects were enrolled based on their score of 1 or 2 on a four point ordinal Global Eyelash Assessment (GEA) scale, and in addition having a low score on a PRO measure associated with 'psychological impact' of the condition, a domain-2 of the Eyelash Satisfaction Questionnaire (ESQ). The study involved two treatment periods of six months each. In the first treatment period, subjects for both populations were randomized 3:1 for QD bimatoprost: vehicle treatment. In the second 6-month treatment period, all subjects were moved to bimatoprost treatment, except for a group of bimatoprost treated idiopathic hypotrichosis subjects (n=55) who were switched to vehicle to investigate the effect of drug discontinuation. The study included 9 visits over the 12-month treatment period. The primary end point was the proportion of responders within each treatment group based on a composite measure of GEA and ESQ Domain-2 (investigator assessed eyelash prominence and subject's assessment of 'psychological impact' related to eyelashes) at month-4. This multicenter, double-masked, randomized, parallel-group study included two 6-month treatment periods. Subjects with idiopathic hypotrichosis were randomized to 3 treatment groups: 1) treatment period 1 (TP1) and TP2: bimatoprost; 2) TP1: bimatoprost; TP2: vehicle; and 3) TP1: vehicle; TP2: bimatoprost. Subjects with chemotherapy-induced hypotrichosis were randomized to 2 treatment groups: 1) TP1: bimatoprost or vehicle; and 2) TP2: bimatoprost. The primary endpoint was a composite of at least a 1-grade improvement in investigator-assessed Global Eyelash Assessment (GEA), and at least a 3-point improvement in subject-reported Eyelash Satisfaction Questionnaire (ESQ) Domain 2 (self-perceived confidence, attractiveness, and professionalism) at month 4. Secondary measures included digitally assessed eyelash characteristics (i.e., eyelash length, fullness, and darkness). Idiopathic hypotrichosis subjects were randomized to 3 treatment arms in a 2:1:1 ratio: bimatoprost during both treatment periods; vehicle in TP1 and bimatoprost in TP2; and bimatoprost in TP1 and vehicle in TP2. Chemotherapy-induced hypotrichosis subjects were randomized in a 3:1 ratio to receive bimatoprost during both treatment periods or vehicle in TP1 followed by bimatoprost in TP2. Male or female subjects at least 18 years of age who met these criteria were eligible for inclusion in the study: a score of 1 or 2 on the clinician-graded global eyelash assessment (“GEA”); a score of 1 (very much disagree) or 2 (disagree) on each of 3 items (16 [confidence], 19 [attractiveness], and 18 [professionalism]) on the subject-assessed eyelash satisfaction questionnaire (“esq”); best-corrected visual acuity (“bcva”) score equivalent to a […] acuity of 20/100 or better in each eye; and intraocular pressure (“iop”) 20 mm hg or less in each eye. Subjects in the chemotherapy-induced hypotrichosis population also met the following inclusion criteria: inadequate eyelashes after completing chemotherapy; treatment for solid tumor type stage 1, 2, or 3a cancer; last chemotherapy treatment at least 4 to less than 16 weeks prior to baseline; and considered free of cancer. Key exclusion criteria included subjects with any eye disease or abnormality or a history of eye surgery. Subjects placed 1 drop of study treatment (i.e., bimatoprost 0.03% or vehicle) onto a sterile single-use-per eye applicator and applied it to the upper eyelid margin of 1 eye; a second applicator was used for the contralateral eye. Treatment was applied once daily in the evening throughout the study. […]

[2] = Safety (adverse events, IOP), idiopathic hypotrichosis subpopulation; assay type: in vivo, human
Method: Safety measures included adverse events (AEs), ophthalmic examination (ophthalmoscopy [dilated], biomicroscopy, IOP, iris color assessment, and BCVA). AEs were monitored throughout the study by the investigator.
The 12-month data were the primary focus of the safety evaluation. Safety data were summarized with descriptive statistics (n, or frequency distributions [counts or percentages]). Biomicroscopic examinations and assessments of iris color, IOP, and BCVA were performed for each subject at screening/baseline and months 1, 2, 4, 6, 8, and 12 (or early termination prior to month 12); ophthalmoscopic examinations (dilated) were performed at screening/baseline and months 6 and 12 (or early termination prior to month 12). Two IOP measurements were taken for each eye at each visit; a third measurement was taken if the difference between the first 2 measurements was more than 2 mm Hg. The average or median IOP was determined in the event that 2 or 3 measurements were made, respectively. The IOP value analyzed at each visit was the average IOP of the subject's 2 eyes. Change and percent change from baseline in IOP were summarized by descriptive statistics. Between-group comparison will be performed using the 1-way analysis of variance.

[3] = Bim/Veh group (n = 60), Month 1 (on bimatoprost)
[4] = Bim/Veh group (n = 60), Month 2 (on bimatoprost)
[5] = Bim/Veh group (n = 60), Month 4 (on bimatoprost)
[6] = Bim/Veh group (n = 60), Month 6 (on bimatoprost)
[7] = Bim/Veh group (n = 60), Month 7 (vehicle since month 6)
[8] = Bim/Veh group (n = 60), Month 8 (vehicle since month 6)
[9] = Bim/Veh group (n = 60), Month 10 (vehicle since month 6)
[10] = Bim/Veh group (n = 60), Month 12 (vehicle since month 6)
[11] = Month 4, all bimatoprost TP1 (n = 179)
[12] = Month 6, all bimatoprost TP1 (n = 179)

## CCNC(=O)CCC/C=C\C[C@@H]1[C@@H](/C=C/[C@@H](O)CCc2ccccc2)[C@H](O)C[C@@H]1O [Bim 0.03%, bimatoprost]
[1]; [3]
  Primary composite endpoint responders (≧1-grade GEA and ≧3-point ESQ Domain 2 improvement): 0.0%
  ≧1-Grade Improvement From Baseline GEA Score: 10.0%
  ≧2-Grade Improvement From Baseline GEA Score: 0.0%
  ≧3-Point Improvement From Baseline ESQ Domain 2 Score: 13.3%
[1]; [4]
  Primary composite endpoint responders (≧1-grade GEA and ≧3-point ESQ Domain 2 improvement): 13.3%
  ≧1-Grade Improvement From Baseline GEA Score: 40.0%
  ≧2-Grade Improvement From Baseline GEA Score: 3.3%
  ≧3-Point Improvement From Baseline ESQ Domain 2 Score: 25.0%
[1]; [5]
  Primary composite endpoint responders (≧1-grade GEA and ≧3-point ESQ Domain 2 improvement): 41.7%
  ≧1-Grade Improvement From Baseline GEA Score: 71.7%
  ≧2-Grade Improvement From Baseline GEA Score: 25.0%
  ≧3-Point Improvement From Baseline ESQ Domain 2 Score: 48.3%
[1]; [6]
  Primary composite endpoint responders (≧1-grade GEA and ≧3-point ESQ Domain 2 improvement): 48.3%
  ≧1-Grade Improvement From Baseline GEA Score: 76.7%
  ≧2-Grade Improvement From Baseline GEA Score: 30.0%
  ≧3-Point Improvement From Baseline ESQ Domain 2 Score: 56.7%
[1]; [7]
  Primary composite endpoint responders (≧1-grade GEA and ≧3-point ESQ Domain 2 improvement): 51.7%
  ≧1-Grade Improvement From Baseline GEA Score: 78.3%
  ≧2-Grade Improvement From Baseline GEA Score: 30.0%
  ≧3-Point Improvement From Baseline ESQ Domain 2 Score: 56.7%
[1]; [8]
  Primary composite endpoint responders (≧1-grade GEA and ≧3-point ESQ Domain 2 improvement): 50.0%
  ≧1-Grade Improvement From Baseline GEA Score: 78.3%
  ≧2-Grade Improvement From Baseline GEA Score: 28.3%
  ≧3-Point Improvement From Baseline ESQ Domain 2 Score: 55.0%
[1]; [9]
  Primary composite endpoint responders (≧1-grade GEA and ≧3-point ESQ Domain 2 improvement): 20.0%
  ≧1-Grade Improvement From Baseline GEA Score: 46.7%
  ≧2-Grade Improvement From Baseline GEA Score: 8.3%
  ≧3-Point Improvement From Baseline ESQ Domain 2 Score: 43.3%
[1]; [10]
  Primary composite endpoint responders (≧1-grade GEA and ≧3-point ESQ Domain 2 improvement): 11.7%
  ≧1-Grade Improvement From Baseline GEA Score: 35.0%
  ≧2-Grade Improvement From Baseline GEA Score: 5.0%
  ≧3-Point Improvement From Baseline ESQ Domain 2 Score: 38.3%
[1]; [11]
  Primary composite endpoint responders (≧1-grade GEA and ≧3-point ESQ Domain 2 improvement): 40.2%
  Responders with ≧1-grade increase in GEA score: 74.3%
  Responders with ≧2-grade increase in GEA score: 25.7%
  Responders with ≧3-point increase in ESQ Domain 2: 47.5%
[1]; Month 4, all bimatoprost TP1 (n = 179), listed as Bimatoprost
  Responders with ≧1-grade increase in GEA score: 74.3%
[1]; Month 4, all bimatoprost TP1 (n = 179), listed as bimatoprost
  Responders with ≧1-grade increase in GEA score: 74.3% and > 70%
[1]; [12]
  Primary composite endpoint responders (≧1-grade GEA and ≧3-point ESQ Domain 2 improvement): 47.5%
  Responders with ≧1-grade increase in GEA score: 77.7%
  Responders with ≧2-grade increase in GEA score: 30.7%
  Responders with ≧3-point increase in ESQ Domain 2: 55.9%
[1]; bimatoprost 6 months then vehicle
  Time efficacy was maintained after drug discontinuation: about 2 months
[2]; 0 to 6 Months (N = 118)
  Conjunctival hyperaemia: 5.9%
  Erythema of eyelid: 1.7%
  Eye pruritus: 0.8%
  Eyelids pruritus: 5.1%
  Punctate keratitis: 2.5%
  Skin hyperpigmentation: 0.0%
[2]; 0 to 12 Months (N = 118)
  Conjunctival hyperaemia: 8.5%
  Erythema of eyelid: 5.1%
  Eye pruritus: 0.8%
  Eyelids pruritus: 5.9%
  Punctate keratitis: 2.5%
  Skin hyperpigmentation: 1.7%
[2]; 6 to 12 Months (N = 106)
  Conjunctival hyperaemia: 3.8%
  Erythema of eyelid: 4.7%
  Eye pruritus: 0.0%
  Eyelids pruritus: 0.9%
  Punctate keratitis: 0.0%
  Skin hyperpigmentation: 1.9%
[2]; month 4, IOP measured in mm Hg
  Mean change from baseline in IOP: −1.17
